{"source": "patent US20060088617A1", "about": "“Chocolate composition and method for benefiting the cardiovascular system” (priority 2004, published 2006)", "origin": "cited, not measured here", "tested_on": "blood vessel function", "conditions": "after consumption of flavonoid-rich dark chocolate", "data": [{"compound": "Oc1cc(O)c2c(c1)O[C@H](c1ccc(O)c(O)c1)[C@H](O)C2", "note": "[epicatechin]", "values": [{"measurement": "absorption of epicatechin in the blood", "value": "absorbed at high levels in the blood"}]}]}
